Values joined by “and” are separate entries in the source; they are usually repeats but may differ in a detail not shown here. Equal entries are not always repeated.
Experiments:
[1] = mn = molality of the nth substance listed, in mol/kg; settings: 85.9 kPa, Liquid, Vibrating tube method
[2] = 298.15 K, 85.9 kPa, Liquid; for viscosity: Capillary tube (Ostwald / Ubbelohde) method; for mass density: Vibrating tube method
[3] = refractive index (Na D-line) (dimensionless); settings: 298.15 K; 85.9 kPa; Liquid; Standard Abbe refractometry

CC(=O)Nc1ccc(OC(=O)c2ccccc2O)cc1 [salophen] + C[S+](C)[O-]
mass density, [1]
Settings	m1 = 0.0099	m1 = 0.0307	m1 = 0.0493	m1 = 0.07	m1 = 0.0911	m1 = 0.1086	m1 = 0.1311	m1 = 0.1483	m1 = 0.1717
288.15 K	1105.64 kg/m3 and 1095.61 kg/m3	1096.3 kg/m3 and 1106.33 kg/m3	1096.92 kg/m3 and 1106.94 kg/m3	1097.62 kg/m3 and 1107.62 kg/m3	1098.35 kg/m3 and 1108.33 kg/m3	1098.97 kg/m3 and 1108.91 kg/m3	1099.71 kg/m3 and 1109.66 kg/m3	1100.31 kg/m3 and 1110.22 kg/m3	1101.12 kg/m3 and 1111 kg/m3
308.15 K	1085.58 kg/m3	1086.29 kg/m3	1086.93 kg/m3	1087.63 kg/m3	1088.38 kg/m3	1089 kg/m3	1089.77 kg/m3	1090.36 kg/m3	1091.18 kg/m3
318.15 K	1075.56 kg/m3	1076.29 kg/m3	1076.95 kg/m3	1077.68 kg/m3	1078.44 kg/m3	1079.07 kg/m3	1079.87 kg/m3	1080.47 kg/m3	1081.32 kg/m3

CC(=O)Nc1ccc(OC(=O)c2ccccc2O)cc1 [salophen] + C1COCCO1
mass density, [1]
Settings	m1 = 0.0106	m1 = 0.0284	m1 = 0.0495	m1 = 0.0693	m1 = 0.0855	m1 = 0.1104	m1 = 0.1313	m1 = 0.1482	m1 = 0.1707
288.15 K	1039.84 kg/m3 and 1028.52 kg/m3	1029.51 kg/m3 and 1040.81 kg/m3	1030.66 kg/m3 and 1041.93 kg/m3	1031.72 kg/m3 and 1042.96 kg/m3	1032.57 kg/m3 and 1043.79 kg/m3	1033.86 kg/m3 and 1045.04 kg/m3	1034.92 kg/m3 and 1046.05 kg/m3	1035.78 kg/m3 and 1046.86 kg/m3	1036.89 kg/m3 and 1047.91 kg/m3
308.15 K	1017.22 kg/m3	1018.23 kg/m3	1019.39 kg/m3	1020.48 kg/m3	1021.35 kg/m3	1022.68 kg/m3	1023.75 kg/m3	1024.62 kg/m3	1025.75 kg/m3
318.15 K	1005.88 kg/m3	1006.9 kg/m3	1008.09 kg/m3	1009.19 kg/m3	1010.08 kg/m3	1011.41 kg/m3	1012.5 kg/m3	1013.37 kg/m3	1014.52 kg/m3

CC(=O)N(C)C [N,N-dimethylethanamide]
Settings	mass density [kg/m3]	refractive index	viscosity [mPa·s]
[2]	936.57	–	0.961
[3]	–	1.436	–

CC(=O)Nc1ccc(OC(=O)c2ccccc2O)cc1 [salophen] + CC(=O)N(C)C
mass density, [1]
Settings	m1 = 0.0106	m1 = 0.0323	m1 = 0.0497	m1 = 0.0704	m1 = 0.0899	m1 = 0.1092	m1 = 0.129	m1 = 0.1492	m1 = 0.1742
288.15 K	946.52 kg/m3 and 937.32 kg/m3	938.87 kg/m3 and 948.07 kg/m3	940.11 kg/m3 and 949.32 kg/m3	941.6 kg/m3 and 950.78 kg/m3	942.99 kg/m3 and 952.18 kg/m3	944.36 kg/m3 and 953.53 kg/m3	945.78 kg/m3 and 954.93 kg/m3	947.22 kg/m3 and 956.35 kg/m3	949.07 kg/m3 and 958.13 kg/m3
308.15 K	928.08 kg/m3	929.62 kg/m3	930.86 kg/m3	932.36 kg/m3	933.77 kg/m3	935.17 kg/m3	936.59 kg/m3	938.07 kg/m3	939.94 kg/m3
318.15 K	918.85 kg/m3	920.4 kg/m3	921.65 kg/m3	923.15 kg/m3	924.58 kg/m3	925.99 kg/m3	927.42 kg/m3	928.91 kg/m3	930.75 kg/m3

C1CCOC1 [tetrahydrofuran]
Settings	mass density [kg/m3]	refractive index	viscosity [mPa·s]
[2]	882.02	–	0.448
[3]	–	1.4047	–

CC(=O)Nc1ccc(OC(=O)c2ccccc2O)cc1 [salophen] + C1CCOC1
mass density, [1]
Settings	m1 = 0.0103	m1 = 0.0316	m1 = 0.0496	m1 = 0.0699	m1 = 0.0908	m1 = 0.1099	m1 = 0.1293	m1 = 0.1498	m1 = 0.1704
288.15 K	893.79 kg/m3 and 882.94 kg/m3	884.82 kg/m3 and 895.65 kg/m3	886.39 kg/m3 and 897.21 kg/m3	888.13 kg/m3 and 898.95 kg/m3	889.9 kg/m3 and 900.71 kg/m3	891.51 kg/m3 and 902.31 kg/m3	893.11 kg/m3 and 903.88 kg/m3	894.79 kg/m3 and 905.55 kg/m3	896.46 kg/m3 and 907.21 kg/m3
308.15 K	871.92 kg/m3	873.82 kg/m3	875.41 kg/m3	877.17 kg/m3	878.97 kg/m3	880.59 kg/m3	882.21 kg/m3	883.9 kg/m3	885.6 kg/m3
318.15 K	860.78 kg/m3	862.7 kg/m3	864.3 kg/m3	866.08 kg/m3	867.89 kg/m3	869.54 kg/m3	871.17 kg/m3	872.89 kg/m3	874.58 kg/m3

C1COCCO1 [1,4-dioxane]
Settings	mass density [kg/m3]	refractive index	viscosity [mPa·s]
[2]	1027.93	–	1.158
[3]	–	1.4188	–

C[S+](C)[O-] [dimethyl sulfoxide]
Settings	mass density [kg/m3]	refractive index	viscosity [mPa·s]
[2]	1095.29	–	1.867
[3]	–	1.4762	–
